# Values quoted from earlier work as cited in paper PMC8513935.
# Assay: derived by the authors as gas->solvent minus gas->water (a hypothetical dry solvent; the ESI), not a two-phase measurement
# Settings: 1,2-Dichloroethane, 25 C
row,SMILES,"log K of transfer, water to solvent"
1,Cc1cccc(C)c1,3.77 log10 K
2,CCCCCCCO,1.89 log10 K
3,C1CCOC1,0.76 log10 K

# Same assay, conditions: Acetone, 25 C
row,SMILES,"log K of transfer, water to solvent"
1,C1CCOC1,0.46 log10 K

# Same assay, conditions: Benzene, 25 C
row,"log K of transfer, water to solvent",SMILES
1,1.93 log10 K,CCCCCCCO

# Same assay, conditions: Butyronitrile, 25 C
row,"log K of transfer, water to solvent",SMILES
1,2.24 log10 K,CCCCCCCO

# Same assay, conditions: CCl4, 25 C
row,SMILES,"log K of transfer, water to solvent"
1,Cc1cccc(C)c1,3.57 log10 K
2,CCCCCCCO,1.57 log10 K
3,C1CCOC1,0.57 log10 K

# Same assay, conditions: Chlorobenzene, 25 C
row,SMILES,"log K of transfer, water to solvent"
1,CCCCCCCO,1.86 log10 K
2,C1CCOC1,0.41 log10 K

# Same assay, conditions: Chloroform, 25 C
row,SMILES,"log K of transfer, water to solvent"
1,Cc1cccc(C)c1,3.68 log10 K
2,CCCCCCCO,2.41 log10 K
3,C1CCOC1,1.3 log10 K

# Same assay, conditions: Cyclohexane, 25 C
row,SMILES,"log K of transfer, water to solvent"
1,Cc1cccc(C)c1,3.34 log10 K
2,CCCCCCCO,1.09 log10 K

# Same assay, conditions: Di-n-butyl ether, 25 C
row,SMILES,"log K of transfer, water to solvent"
1,C1CCOC1,0.23 log10 K

# Same assay, conditions: Heptan-1-ol, 25 C
row,"log K of transfer, water to solvent",SMILES
1,2.71 log10 K,CCCCCCCO

# Same assay, conditions: Hexadecane, 25 C
row,SMILES,"log K of transfer, water to solvent"
1,Cc1cccc(C)c1,3.23 log10 K
2,CCCCCCCO,1.02 log10 K
3,C1CCOC1,0.076 log10 K

# Same assay, conditions: Hexan-1-ol, 25 C
row,"log K of transfer, water to solvent",SMILES
1,2.83 log10 K,CCCCCCCO

# Same assay, conditions: Hexane, 25 C
row,SMILES,"log K of transfer, water to solvent"
1,CCCCCCCO,1.01 log10 K
2,C1CCOC1,0.14 log10 K

# Same assay, conditions: Methanol, 25 C
row,SMILES,"log K of transfer, water to solvent"
1,CCCCCCCO,2.48 log10 K
2,C1CCOC1,0.69 log10 K

# Same assay, conditions: Octan-1-ol(dry), 25 C
row,SMILES,"log K of transfer, water to solvent"
1,Cc1cccc(C)c1,3.18 log10 K
2,C1CCOC1,0.3 log10 K

# Same assay, conditions: Propan-1-ol, 25 C
row,SMILES,"log K of transfer, water to solvent"
1,C1CCOC1,0.34 log10 K

# Same assay, conditions: Propan-2-ol, 25 C
row,SMILES,"log K of transfer, water to solvent"
1,C1CCOC1,0.33 log10 K

# Same assay, conditions: Tetrahydrofuran, 25 C
row,SMILES,"log K of transfer, water to solvent"
1,C1CCOC1,0.58 log10 K

# Same assay, conditions: Toluene, 25 C
row,"log K of transfer, water to solvent",SMILES
1,1.86 log10 K,CCCCCCCO

# Assay: log P octanol/water from commercial databases, averaged (the ESI)
# Settings: Octanol (wet), 25 C
row,SMILES,"log K of transfer, water to solvent"
1,Cc1cccc(C)c1,3.2 log10 K
2,CCCCCCCO,2.62 log10 K
3,C1CCOC1,0.46 log10 K

# Assay: experimental, compiled by the authors from the literature (the ESI cites the sources)
# Settings: 1,2-Dichloroethane, 25 C
row,SMILES,"log K of transfer, gas to solvent"
1,Cc1cccc(C)c1,4.38 log10 K
2,CCCCCCCO,4.98 log10 K
3,C1CCOC1,3.32 log10 K

# Same assay, conditions: Benzene, 25 C
row,"log K of transfer, gas to solvent",SMILES
1,5.02 log10 K,CCCCCCCO

# Same assay, conditions: Butyronitrile, 25 C
row,"log K of transfer, gas to solvent",SMILES
1,5.33 log10 K,CCCCCCCO

# Same assay, conditions: CCl4, 25 C
row,SMILES,"log K of transfer, gas to solvent"
1,Cc1cccc(C)c1,4.18 log10 K
2,CCCCCCCO,4.66 log10 K
3,C1CCOC1,3.13 log10 K

# Same assay, conditions: Chlorobenzene, 25 C
row,SMILES,"log K of transfer, gas to solvent"
1,CCCCCCCO,4.95 log10 K
2,C1CCOC1,2.97 log10 K

# Same assay, conditions: Chloroform, 25 C
row,SMILES,"log K of transfer, gas to solvent"
1,Cc1cccc(C)c1,4.29 log10 K
2,CCCCCCCO,5.5 log10 K
3,C1CCOC1,3.86 log10 K

# Same assay, conditions: Cyclohexane, 25 C
row,SMILES,"log K of transfer, gas to solvent"
1,Cc1cccc(C)c1,3.95 log10 K
2,CCCCCCCO,4.18 log10 K

# Same assay, conditions: Di-n-butyl ether, 25 C
row,SMILES,"log K of transfer, gas to solvent"
1,C1CCOC1,2.79 log10 K

# Same assay, conditions: Heptan-1-ol, 25 C
row,"log K of transfer, gas to solvent",SMILES
1,5.8 log10 K,CCCCCCCO

# Same assay, conditions: Hexadecane, 25 C
row,SMILES,"log K of transfer, gas to solvent"
1,Cc1cccc(C)c1,3.84 log10 K
2,CCCCCCCO,4.11 log10 K
3,C1CCOC1,2.63 log10 K

# Same assay, conditions: Hexan-1-ol, 25 C
row,"log K of transfer, gas to solvent",SMILES
1,5.92 log10 K,CCCCCCCO

# Same assay, conditions: Hexane, 25 C
row,SMILES,"log K of transfer, gas to solvent"
1,CCCCCCCO,4.1 log10 K
2,C1CCOC1,2.7 log10 K

# Same assay, conditions: Methanol, 25 C
row,SMILES,"log K of transfer, gas to solvent"
1,CCCCCCCO,5.57 log10 K
2,C1CCOC1,3.25 log10 K

# Same assay, conditions: Octan-1-ol, 25 C
row,SMILES,"log K of transfer, gas to solvent"
1,Cc1cccc(C)c1,3.79 log10 K
2,C1CCOC1,2.86 log10 K

# Same assay, conditions: Propan-1-ol, 25 C
row,SMILES,"log K of transfer, gas to solvent"
1,C1CCOC1,2.9 log10 K

# Same assay, conditions: Propan-2-ol, 25 C
row,SMILES,"log K of transfer, gas to solvent"
1,C1CCOC1,2.89 log10 K

# Same assay, conditions: Propanone, 25 C
row,SMILES,"log K of transfer, gas to solvent"
1,C1CCOC1,3.02 log10 K

# Same assay, conditions: Tetrahydrofuran, 25 C
row,SMILES,"log K of transfer, gas to solvent"
1,C1CCOC1,3.14 log10 K

# Same assay, conditions: Toluene, 25 C
row,"log K of transfer, gas to solvent",SMILES
1,4.95 log10 K,CCCCCCCO

# Same assay, conditions: Water, 25 C
row,SMILES,"log K of transfer, gas to solvent"
1,Cc1cccc(C)c1,0.61 log10 K
2,CCCCCCCO,3.09 log10 K
3,C1CCOC1,2.56 log10 K
